Experimental data from patent US11674962B2, “Therapeutic and diagnostic methods for cancer” (Genentech, Inc., priority 2017, dated 2023).

Assays:
[1] = tested on: treatment-naive, locally advanced or metastatic (stage IIIB-IVB) NSCLC; test: B-F1RST phase II trial (NCT02848651) interim analysis: safety (adverse events) of atezolizumab; type: in vivo, human
Description: (§1) The B-F1 RST (Clinical Trial ID No.: NCT02848651) patient population being evaluated for bTMB score consists of approximately 150 patients at 20 to 25 study sites (N=153). Patients are eligible for enrollment in the B-F1 RST study if they have treatment-naïve, locally advanced or metastatic (e.g., stage IIIB-IVB) NSCLC; measurable disease, as defined by RECIST v1.1; and an ECOG performance status of 0 or 1. Exclusion criteria include sensitizing EGFR mutations or ALK rearrangements; active brain metastases requiring treatment; leptomeningeal disease; other malignancies within 5 years of enrollment; HBV, HCV, or HIV infection; or history of autoimmune disorder. Participants are divided into cohorts based on bTMB score and receive atezolizumab at a dose of 1200 mg intravenously every three weeks. All patients undergo tumor assessment at baseline and every 6 weeks for the first 12 months following cycle 1, day 1, and then every 9 weeks therafter. Treatment with atezolizumab can be continued as long as participants were experiencing clinical benefit, i.e., in the absence of unacceptable toxicity or symptomatic deterioration attributed to disease progression. Tumor assessments continue until disease progression per RECIST v1.1 or loss of clinical benefit (investigator assessed), consent withdrawal, study discontinuation, study completion, or death. Mandatory blood samples are taken at baseline, during therapy, and at progression to evaluate changes in exploratory biomarkers. The interim analysis was prespecified to occur at 6 months after 50% of the patients have been enrolled, with a prespecified bTMB score of ≥16. The co-primary endpoints are the clinical efficacy of atezolizumab (as evaluated by investigator-assessed ORR per RECIST v1.1) and the relationship between bTMB and PFS benefit (as evaluated by investigator-assessed PFS per RECIST v1.1). The secondary objectives are safety and assessment of efficacy by investigator-assessed duration of response (DOR) and OS.
(§2) Of 78 treated patients in the interim analysis population (IAP) from the B-F1 RST study, 58 had adequate blood samples with sufficient detection of circulating tumor DNA (MSAF≥1%) and comprised the biomarker-evaluable population (BEP). One patient of the IAP was never treated and therefore not safety- or efficacy-evaluable. A bTMB score of 16 (prevalence, 19% [11/58]) was prespecified to evaluate clinical efficacy in the BEP (bTMB high, ≥16; bTMB low, <16). Statistical tests were 2-sided at a 0.1 level and 90% confidence interval.

[2] = tested on: treatment-naive, locally advanced or metastatic (stage IIIB-IVB) NSCLC; test: B-F1RST phase II trial (NCT02848651) interim analysis: efficacy of first-line atezolizumab by bTMB subgroup; type: in vivo, human
Description: as §1, §2

[3] = bTMB cut-off score 12, BEP n = 58
[4] = bTMB cut-off score 14, BEP n = 58
[5] = bTMB cut-off score 16, BEP n = 58
[6] = bTMB cut-off score 20, BEP n = 58

atezolizumab
Treatment-related Grade 5 AEs ([1]; Patients in IAP (n = 78)): ^bNo treatment-related Grade 5 AEs were reported. | Grade 5 AEs, any cause ([1]; Patients in IAP (n = 78), reported as death, cardiac arrest, pulmonary embolism (n = 1 each)): 3 (3.8%) n (%) | AE of special interest: Adrenal insufficiency ([1]; in vivo): 1 (1.3%) n (%) | AEs leading to discontinuation, patients ([1]; in vivo): 15.4% | AEs leading to treatment discontinuation ([1]; in vivo): 12 (15.4%) n (%) | AEs, any cause ([1]; in vivo): 78 (100.0%) n (%) | Grade 3-4 AEs, any cause ([1]; in vivo): 40 (51.3%) n (%) | SAEs, any cause ([1]; in vivo): 35 (44.9%) n (%) | Treatment-related AEs ([1]; in vivo): 59 (75.6%) n (%) | Treatment-related Grade 3-4 AEs ([1]; in vivo): 15 (19.2%) n (%) | Treatment-related SAEs ([1]; in vivo): 12 (15.4%) n (%) | Treatment-related serious AEs, patients ([1]; in vivo): 14.1% | tolerability ([1]; in vivo): well tolerated | treatment-related grade 3/4 AEs, patients ([1]; in vivo): 16.7% | disease control rate ([2]; B-F1RST interim analysis, BEP (n=58)): 25.9% | ORR ([2]; B-F1RST interim analysis, BEP (n=58), RECIST v1.1): 12.1% | PFS HR (90% CI) ([2]; B-F1RST interim analysis, bTMB high (≥16) vs low (<16)): 0.51 | median PFS ([2]; B-F1RST interim analysis, bTMB high (≥16), minimum follow-up of 6 months): 9.5 months | ORR ([2]; B-F1RST interim analysis, bTMB high (≥16), n=11): 36.4% | ORR odds ratio (90% CI) ([2]; B-F1RST interim analysis, bTMB high versus low groups): 8.38 | median PFS ([2]; B-F1RST interim analysis, bTMB low (<16), minimum follow-up of 6 months): 2.8 months | ORR ([2]; B-F1RST interim analysis, bTMB low (<16), n=47): 6.4% | ORR per RECIST v.1.1 ([2]; BEP (n = 58)): 12.1% | PD per RECIST v.1.1 ([2]; BEP (n = 58)): 37.9% | PR per RECIST v.1.1 ([2]; BEP (n = 58)): 12.1% | ORR per RECIST v.1.1 ([2]; IAP (n = 78)): 15.4% | PD per RECIST v.1.1 ([2]; IAP (n = 78)): 37.2% | PR per RECIST v.1.1 ([2]; IAP (n = 78)): 15.4% | PFS Median, bTMB High [2, 3]: 3.0 (22) months | PFS Median, bTMB Low [2, 3]: 3.2 (36) months | PFS Median, bTMB High [2, 4]: 3.4 (14) months | PFS Median, bTMB Low [2, 4]: 3.2 (44) months | PFS Median, bTMB High [2, 5]: 9.5 (11) months | PFS Median, bTMB Low [2, 5]: 2.8 (47) months | PFS Median, bTMB High [2, 6]: 9.5 (8) months | PFS Median, bTMB Low [2, 6]: 2.7 (50) months | ORR per RECIST v.1.1 ([2]; bTMB high (n = 11)): 36.4% | PD per RECIST v.1.1 ([2]; bTMB high (n = 11)): 36.4% | PR per RECIST v.1.1 ([2]; bTMB high (n = 11)): 36.4% | PFS HR ([2]; bTMB high (≥16) vs bTMB low (<16), Table 20): 0.51 | median PFS ([2]; bTMB high (≥16), n = 11, BEP, first-line atezolizumab, minimum follow-up 6 months): 9.5 mo | PFS HR ([2]; bTMB high vs low at cut-off score 12, BEP n = 58): 0.95 | PFS HR ([2]; bTMB high vs low at cut-off score 14, BEP n = 58): 0.73 | PFS HR ([2]; bTMB high vs low at cut-off score 16, BEP n = 58, Table 21): 0.49 | PFS HR ([2]; bTMB high vs low at cut-off score 20, BEP n = 58): 0.23 | median PFS ([2]; bTMB low (<16), n = 47, BEP, first-line atezolizumab, minimum follow-up 6 months): 2.8 mo | ORR per RECIST v.1.1 ([2]; bTMB low (n = 47)): 6.4% | PD per RECIST v.1.1 ([2]; bTMB low (n = 47)): 38.3% | PR per RECIST v.1.1 ([2]; bTMB low (n = 47)): 6.4%
